“Also recorded” adds a separate entry of the source.
Columns and labels:
[1] = system: H-23 human lung cancer cell line; test: Growth inhibition of lung cancer cells (FIG. 6); format: cell-based; details: for growth inhibition / sensitivity (in words): 72 hours post-treatments
Excerpt: (§1) Thus, findings from this large panel of cancer cell lines indicated significant roscovitine sensitivity well beyond those human and murine lung cancer cells already investigated. For lung cancer cells, this response is tightly associated with the presence of ras activation in highly responsive cells.

[2] = system: H-522 human lung cancer cell line; test: Growth inhibition of lung cancer cells (FIG. 6); format: cell-based; details: for growth inhibition / sensitivity (in words): 72 hours post-treatments, wild-type ras
Excerpt: as §1

[3] = system: HOP-62 human lung cancer cell line; test: Growth inhibition of lung cancer cells (FIG. 6); format: cell-based; details: for growth inhibition / sensitivity (in words): 72 hours post-treatments
Excerpt: as §1

[4] = system: 270 human cancer cell lines; test: Pharmacogenomic analysis of cancer cell lines, summary; format: cell-based; details: over half of investigated lung, pancreatic, head and neck, esophageal, liver, thyroid, ovarian, uterine, and skin cancer cell lines; 72 hours
Excerpt: A total of 270 human cancer cell lines from diverse cancer histopathologic types were investigated.

[5] = system: nasopharyngeal cancer (NPC); test: Clinical study of seliciclib in previously treated advanced solid tumors enriched for NPC; format: in vivo, human
Method: The incidence of nasopharyngeal cancer (NPC) varies, with higher rates in southern Asia, intermediate rates in Mediterranean basin countries as well as in Greenland and Alaska populations, and low rates in most of the western countries (Chang et al 2006 Cancer Epidemiol. Biomarkers Prev. v15 p 1765). A clinical study of R-roscovitine (seliciclib) in patients with previously treated advanced solid tumors that was heavily enriched for NPC patients was performed. […] Patients were also evaluated for overall survival, response rate, response duration, safety, and tolerability.
A total of 23 patients were enrolled on the study (11 at 400 mg bid and 12 at 800 mg qd.).
This patient was […] and thus not from one of the patient populations where NPC is more prevalent. K-Ras mutations are extremely rare in NPC patients. A biopsy sample from this patient was analysed for K-Ras mutational status. DNA was extracted from a paraffin embedded tumor sample and analysed for a total of 12 different mutations in Gly12 and Gly13 which represent the most common K-Ras activating mutations. Analysis was performed using a standard PCR-RFLP methodology as has been reported previously (Hatzaki et al 2001 Molecular and Cellular Probes; v15, 243) which identified a K-Ras activating mutation at Gly12 in the tumor sample.
This was a longer period of clinical benefit than achieved with four previous therapies.

[6] = system: nasopharyngeal cancer (NPC); details: Phase I, patients with nasopharyngeal cancer; cited from earlier work
[7] = seliciclib combined with docetaxel
[8] = seliciclib combined with paclitaxel

Q: What does the source list for `CC[C@H](CO)Nc1nc(NCc2ccccc2)c2ncn(C(C)C)c2n1` [seliciclib, roscovitine]?
A: growth inhibition / sensitivity (in words) ([1]; listed as Seliciclib): dose-dependent growth inhibition; growth inhibition / sensitivity (in words) ([1]; listed as roscovitine): more sensitive to roscovitine that H-522 lung cancer cells; proliferation, combined treatment (in words) [1, 7]: cooperatively inhibited proliferation; proliferation, combined treatment (in words) [1, 8]: cooperatively inhibited proliferation; growth inhibition / sensitivity (in words) ([2]; listed as Seliciclib): dose-dependent growth inhibition; growth inhibition / sensitivity (in words) ([2]; listed as roscovitine): less sensitive than others examined; proliferation, combined treatment (in words) [2, 7]: cooperatively inhibited proliferation; proliferation, combined treatment (in words) [2, 8]: cooperatively inhibited proliferation; growth inhibition / sensitivity (in words) ([3]; listed as Seliciclib): dose-dependent growth inhibition; growth inhibition / sensitivity (in words) ([3]; listed as roscovitine): more sensitive to roscovitine that H-522 lung cancer cells; proliferation, combined treatment (in words) [3, 7]: cooperatively inhibited proliferation; proliferation, combined treatment (in words) [3, 8]: cooperatively inhibited proliferation; growth inhibition compared with vehicle treated cells [4]: at least 50%; disease response among the NPC patients ([5]; a number of individuals, 400 mg bid or 800 mg qd): prolonged stable disease; duration of stable disease ([5]; one NPC patient with K-Ras activating mutation at Gly12, schedule B, 800 mg once per day, four days every week): stable disease for over two years; also recorded: stable disease for greater than two years; tolerability ([5]; patients, 400 mg bid and 800 mg qd, four consecutive days every week): well tolerated; copy counts of the EBV virus [6]: concomitant reduction in copy counts of the EBV virus; tumor response [6]: evidence of tumor shrinkage
